Key:
WT rhodopsin = assay: Immunoblot of rhodopsin, MTX plus BafA1 or MG-132, NIH3T3 (RHO^WT/GFP) cells; type: cell-based
Description: (§1) Cells were seeded in 6-well plates at a density of 5×10^5 cells/well and cultured at 37° C. with 5% CO2 for 17 h. The medium was replaced with a fresh medium containing a corresponding concentration of compounds. After treatment for 24 h, cells collected and lysed in 150 μL PBS containing 0.1% SDS and complete protease inhibitor cocktail with 12 s of sonication on ice. Retina samples were lysed in 300 μL per retina of PBS containing 0.1% SDS and complete protease inhibitor cocktail under 24 s of sonication on ice. Protein concentrations were determined by measurements of OD280 nm using a Nanodrop spectrometer. To immunoblot rhodopsin, one hundred μg of total protein for NIH3T3 (RHO^P23H/GFP) cells, or twenty μg of total protein for NIH3T3 (RHO^WT/GFP) cells was loaded per well onto an SDS-PAGE gel. To detect other proteins, fifty μg of total protein was loaded per well. After separation by electrophoresis in 10% and 16% SDS-PAGE gels, proteins were transferred to a nitrocellulose membrane using a wet membrane electrotransfer cassette followed by blocking with 5% bovine serum albumin in PBS containing 0.05% Tween 20 for 1 h. The membranes were incubated with primary antibodies at 4° C. overnight following with appropriate secondary antibodies for 1 h at room temperature. […]

Rho^P23H/+ mice = assay: Retinal immunohistochemistry (IHC) after intravitreal injection; type: in vivo, mouse
Description: The C57BL/6J (Rho^+/+) mice and Rho^P23H/P23H mice were purchased from Jackson Laboratory (Stock No 017628) generated by Dr. Krzysztof Palczewski's lab. The Rho^P23H/P23H mice were crossed with wild-type C57BL/6J mice to produce P23H heterozygotes mice. Genotyping for all strains was conducted as guided using forward and reverse primers: 1) GGTAGCACTGTTGGGCATCT (SEQ ID NO: 5); and 2) GACCCCACAGAGACAAGCTC (SEQ ID NO: 6), respectively. The PCR products at 573 and 399 bp indicated the P23H knock-in mutant and WT allele of the RHO gene, respectively. Mice were bred and housed under standard 12-h light/12-h dark conditions in the University of Pittsburgh animal facility. All animal experiments were approved by the University of Pittsburgh Institutional Animal Care and Use Committee (IACUC) following the guide for the Animal Welfare Act and Regulations.
To determine the effect of compounds on retina in vivo, we administered compounds directly into the vitreous space. Briefly, mice were treated with 1% tropicamide eye drops (Akorn, Lake Forest, IL USA) to dilate the pupils and then they were anesthetized with an intraperitoneal injection of ketamine (Henry Schein, Dublin, OH USA) at 80 mg/kg body weight (bw) and xylazine (Bimeda, Le Sueur, MN USA) at 7 mg/kg bw. One drop of 0.5% tetracaine hydrochloride (TCI, Tokyo, Japan) was applied to mouse eyes as topical anesthetics before injection. Eyes were kept lubricated during the injections by a 0.3% hypromellose eye gel (Alcon, Fort Worth, TX USA). A heating pad was used for maintaining body temperature. Mice were positioned to expose the sclera of the eyes. A 30-gauge needle (Medline, Northfield, IL USA) was used to puncture a hole through sclera behind limbus at a 45° angle. A 33-gauge blunt-end needle (Hamilton, Reno, NV USA) was used to be inserted into the hole and a total of 0.5 μL of sterile PBS or MTX in PBS was slowly injected into the posterior chamber and the needle was kept in place for about 30 seconds before a slow removal of the needle. A small amount of Triantibiotic ointment (Medline, Northfield, IL USA) was applied on the injection site to prevent infection. A single IVI with 25 or 100 pmol of MTX was administered to one eye of each Rho^P23H/+ mice at postnatal day (PND) 15, and PBS was injected to the other eye as vehicle control. We also performed four weekly IVIs of MTX or PBS to the second group of Rho^P23H/+ mouse eyes at PND 15, 22, 29 and 36.
Eyes were enucleated by a pair of curved-tip forceps and fixed in the freshly prepared 4% paraformaldehyde for 2 h. Fixed eyes were dehydrated sequentially in 5, 10, 20 and 40% sucrose solutions in PBS each for 30 min at room temperature. Finally, eyes were incubated in a mixture of 40% sucrose in PBS and O.C.T. compound (FisherScientific, Houston, TX USA) at 1:1 volume ratio for overnight at 4° C. before they are embedded in the same mixed solution in an orientation-specific manner and frozen in liquid nitrogen-bathed isobutene. Twelve-micron retinal cross-sections were made by a microtome at −16° C. and those containing the optic nerve head were applied onto a SuperFrost glass slide (FisherScientific, Houston, TX USA). These slides were then used for IHC. After rehydration and permeabilization in PBST for 15 min, retinal sections were incubated in 5% goat serum for 30 min, and then they were incubated with PBS containing the mouse 1D4 anti-rhodopsin antibody (20 μg/mL) for 2 hours at room temperature in a humidified chamber. The retinal sections were washed with PBST for four times and incubated with Cy3 conjugated goat anti-mouse antibody (5 μg/mL) for 1 hour at room temperature. Hoechst 33342 (1:10000 dilution) was applied for 5 min to stain the nuclei. Sections were mounted with the ProlongGold mounting solution (ThermoFisher, Waltham, MA USA). Immunofluorescence images were then taken by a fluorescence microscope for low-magnification images and a confocal microscope for high-magnification images. […]

rabbits = conditions: 1.76 μmol MTX (about 1 mM in vitreous); cited from earlier work
[1] = test system: SQSTM1/p62 and LC3-II in retinae of Rho^P23H/+ knock-in mice; assay: Autophagy flux in retinae after intravitreal injection (immunoblots of SQSTM1/p62 and LC3); type: in vivo, mouse; conditions: 25 pmol IVI at PND 15, 48 h, vs PBS
Description: as §1

[2] = Estimated initial vitreous concentration after IVI; conditions: mouse vitreous volume about 5.3 μL
P23H rhodopsin = assay: Immunoblot of rhodopsin, MTX plus BafA1 or MG-132, NIH3T3 (RHO^P23H/GFP) cells; type: cell-based; conditions: 10 μM MTX + 100 nM BafA1, 24 h
Description: as §1

[3] = test system: P23H rhodopsin in Rho^P23H/P23H mice; assay: Retinal immunoblotting of P23H rhodopsin after IVI in Rho^P23H/P23H mice; type: in vivo, mouse; conditions: IVI 25 pmol at PND 15; 24, 48 and 72 h; vs PBS; data not shown
Description: as §1

[4] = four IVIs of 25 pmol, PND 46, vs PBS, superior side, not inferior side
[5] = single IVI 25 pmol, PND 33, vs PBS, superior side, not inferior side

Q: For `CN(Cc1cnc2nc(N)nc(N)c2n1)c1ccc(C(=O)N[C@@H](CCC(=O)O)C(=O)O)cc1` [CL-009, N-[4-[[(2,4-diamino-6-pteridinyl)methyl]methylamino]benzoyl]-L-glutamic acid], which “WT rhodopsin level under BafA1 and MTX co-treatment (immunoblot)” value (WT rhodopsin; 10 μM MTX + 100 nM BafA1, 24 h) is on record?
A: accumulation of WT rhodopsin

Q: And the “WT rhodopsin accumulation under MG-132 plus MTX (immunoblot)” value (WT rhodopsin; 10 μM MTX + 5 μM MG-132, 24 h)?
A: did not

Q: What about the “retinal degeneration caused by MTX” value (Rho^P23H/+ mice; 100 pmol IVI, Rho^P23H/+ mice) of the same compound?
A: did not see obvious retinal degeneration

Q: What about the “level of rhodopsin in the ONL (IHC)” value (Rho^P23H/+ mice; [4]) of the same compound?
A: lower

Q: What about the “levels of rhodopsin in the OS (IHC)” value (Rho^P23H/+ mice; [4]) of the same compound?
A: significantly higher

Q: And the “nucleus number in the ONL” value (Rho^P23H/+ mice; [4])?
A: higher

Q: And the “rhodopsin in the OS (IHC)” value (Rho^P23H/+ mice; [5])?
A: significant increase

Q: And the “total rhodopsin level in retinae (IHC)” value (Rho^P23H/+ mice; [5])?
A: significant increase

Q: And the ONL nucleus number (Rho^P23H/+ mice; single IVI, PND 33, either side of the retina)?
A: No change

Q: And the “retinal damage after intravitreal injection” value (rabbits)?
A: Retinal damages were observed

Q: What about the “LC3-II level in retinae” value [1] of the same compound?
A: increase

Q: What about the “SQSTM1/p62 level in retinae” value [1] of the same compound?
A: decrease

Q: What about the vitreous concentration ([2]; 25 pmol IVI) of the same compound?
A: about 4.7 μM

Q: And the initial vitreous concentration ([2]; 100 pmol IVI)?
A: 18.9 µM

Q: And the “MTX induced P23H rhodopsin clearance under BafA1 co-treatment (immunoblot)” value (P23H rhodopsin)?
A: abolished

Q: And the “P23H rhodopsin level by retinal immunoblotting” value [3]?
A: did not see consistently and statistically significant difference
